Structures can show the parent of a compound that is named as a salt. Some results are limits rather than exact numbers.

Broadly, the Ki is a dissociation constant, usually derived from enzyme kinetics or from competition with a known ligand. The low end stands for tighter binding, the high end for weaker binding.

In the assay the target is human cloned 5-HT6 receptors (Homo sapiens, UniProt P50406). The experiment in a line: Evaluation of 5-HT6 binding affinity of test compounds ([3H]-LSD displacement).
Chain of human cloned 5-HT6 receptors (P50406 whole entry): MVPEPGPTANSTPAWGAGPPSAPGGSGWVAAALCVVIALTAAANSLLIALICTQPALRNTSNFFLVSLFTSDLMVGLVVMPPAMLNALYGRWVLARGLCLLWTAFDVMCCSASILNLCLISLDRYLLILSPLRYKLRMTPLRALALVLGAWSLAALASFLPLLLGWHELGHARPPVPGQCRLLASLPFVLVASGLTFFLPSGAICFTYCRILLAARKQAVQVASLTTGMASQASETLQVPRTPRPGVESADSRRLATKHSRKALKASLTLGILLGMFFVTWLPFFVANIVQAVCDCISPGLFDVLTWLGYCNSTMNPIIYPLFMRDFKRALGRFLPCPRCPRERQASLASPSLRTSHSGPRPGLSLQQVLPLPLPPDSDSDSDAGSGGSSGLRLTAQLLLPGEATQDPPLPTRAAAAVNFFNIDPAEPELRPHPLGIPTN

Consider `O=S(=O)(c1cccc2ccccc12)c1n[nH]c2ccc(OC3CCNC3)cc12` (centres unmarked) [Example 1, 3-(Naphthalene-1-sulfonyl)-5-(pyrrolidin-3-yloxy)-1H-indazole], for which the Ki lay within 0.01 to 10 nM.

As for `CCCCN1CCC(Oc2ccc3[nH]nc(S(=O)(=O)c4cccc5ccccc45)c3c2)C1` (centres unmarked) [Example 2, 5-(1-Butylpyrrolidin-3-yloxy)-3-(1-naphthylsulfonyl)-1H-indazole Hydrochloride], the inhibition constant Ki was in the range of 0.01 to 10 nM.

In the case of `CCCN1CCC(Oc2ccc3[nH]nc(S(=O)(=O)c4cccc5ccccc45)c3c2)C1` (centres unmarked) [Example 3, 3-(Naphthalene-1-sulfonyl)-5-(1-propyl-pyrrolidin-3-yloxy)-1H-indazole Hydrochloride], the Ki is 0.01 to 10 nM.

For `CC(C)N1CCC(Oc2ccc3[nH]nc(S(=O)(=O)c4cccc5ccccc45)c3c2)C1` (centres unmarked) [Example 4, 5-(1-Isopropyl-pyrrolidin-3-yloxy)-3-(naphthalene-1-sulfonyl)-1H-indazole Hydrochloride], the Ki lay within 0.01 to 10 nM.

Take `CN1CCC(Oc2ccc3[nH]nc(S(=O)(=O)c4cccc5ccccc45)c3c2)C1` (centres unmarked) [Example 5, 5-(1-Methyl-pyrrolidin-3-yloxy)-3-(naphthalene-1-sulfonyl)-1H-indazole Hydrochloride]: the Ki was in the range of 0.01 to 10 nM.

`O=S(=O)(c1cccc2ccccc12)c1n[nH]c2ccc(OC3CCNCC3)cc12` [Example 6, 3-(1-Naphthylsulfonyl)-5-(piperidin-4-yloxy)-1H-indazole Hydrochloride] displayed a Ki of 0.01 to 10 nM.

In turn, `O=S(=O)(c1ccccc1)c1n[nH]c2ccc(OC3CCNCC3)cc12` [Example 7, 3-(phenylsulfonyl)-5-(piperidin-4-yloxy)-1H-indazole] came in with a Ki of 11 to 25 nM.

For the molecule `O=S(=O)(c1cccc(F)c1)c1n[nH]c2ccc(OC3CCNCC3)cc12` [Example 8, 3-[(3-fluorophenyl)sulfonyl]-5-(piperidin-4-yloxy)-1H-indazole], the Ki lay within 11 to 25 nM.

Turning to `O=S(=O)(c1ccccc1Cl)c1n[nH]c2ccc(OC3CCNCC3)cc12` [Example 9, 3-[(2-chlorophenyl)sulfonyl]-5-(piperidin-4-yloxy)-1H-indazole], the Ki was above 45 nM.

For `O=S(=O)(c1cccc(Cl)c1)c1n[nH]c2ccc(OC3CCNCC3)cc12` [Example 10, 3-[(3-chlorophenyl)sulfonyl]-5-(piperidin-4-yloxy)-1H-indazole], the Ki fell in the range of 0.01 to 10 nM.

`O=S(=O)(c1ccc(Cl)cc1)c1n[nH]c2ccc(OC3CCNCC3)cc12` [Example 11, 3-[(4-chlorophenyl)sulfonyl]-5-(piperidin-4-yloxy)-1H-indazole] gave a Ki of 11 to 25 nM.

In the case of `Cc1cccc(S(=O)(=O)c2n[nH]c3ccc(OC4CCNCC4)cc23)c1` [Example 12, 3-[(3-methylphenyl)sulfonyl]-5-(piperidin-4-yloxy)-1H-indazole], the Ki is 0.01 to 10 nM.

Take `COc1cccc(S(=O)(=O)c2n[nH]c3ccc(OC4CCNCC4)cc23)c1` [Example 13, 3-[(3-methoxyphenyl)sulfonyl]-5-(piperidin-4-yloxy)-1H-indazole]: the inhibition constant Ki lay within 0.01 to 10 nM.

`COc1ccc(S(=O)(=O)c2n[nH]c3ccc(OC4CCNCC4)cc23)cc1` [Example 14, 3-[(4-methoxyphenyl)sulfonyl]-5-(piperidin-4-yloxy)-1H-indazole] came in with an inhibition constant Ki above 45 nM.

In turn, `O=S(=O)(c1cccc(C(F)(F)F)c1)c1n[nH]c2ccc(OC3CCNCC3)cc12` [Example 15, 5-(piperidin-4-yloxy)-3-{[3-(trifluoromethyl)phenyl]sulfonyl}-1H-indazole] displayed an inhibition constant Ki of 0.01 to 10 nM.

Regarding `O=S(=O)(c1ccc(C(F)(F)F)cc1)c1n[nH]c2ccc(OC3CCNCC3)cc12` [Example 16, 5-(piperidin-4-yloxy)-3-{[4-(trifluoromethyl)phenyl]sulfonyl}-1H-indazole], the Ki lay in the range of 11 to 25 nM.

Consider `CC(C)c1ccc(S(=O)(=O)c2n[nH]c3ccc(OC4CCNCC4)cc23)cc1` [Example 17, 3-[(4-isopropylphenyl)sulfonyl]-5-(piperidin-4-yloxy)-1H-indazole], for which the inhibition constant Ki was 11 to 25 nM.

Molecule `Cc1ccc(S(=O)(=O)c2n[nH]c3ccc(OC4CCNCC4)cc23)c2ccccc12` [Example 18, 3-[(4-methyl-1-naphthyl)sulfonyl]-5-(piperidin-4-yloxy)-1H-indazole] returned a Ki of 0.01 to 10 nM.

The molecule `CCCN1CCC(Oc2ccc3[nH]nc(S(=O)(=O)c4cccc5ccccc45)c3c2)CC1` [Example 19, 3-(1-Naphthylsulfonyl)-5-(1-propylpiperidin-4-yloxy)-1H-indazole Hydrochloride] had an inhibitory constant (Ki) of 0.01 to 10 nM.

`CCCCN1CCC(Oc2ccc3[nH]nc(S(=O)(=O)c4cccc5ccccc45)c3c2)CC1` [Example 20, 5-(1-Butylpiperidin-4-yloxy)-3-(1-naphthylsulfonyl)-1H-indazole Hydrochloride]: the Ki fell in the range of 0.01 to 10 nM.

As for `CN1CCC(Oc2ccc3[nH]nc(S(=O)(=O)c4cccc5ccccc45)c3c2)CC1` [Example 21, 5-(1-Methylpiperidin-4-yloxy)-3-(1-naphthylsulfonyl)-1H-indazole Hydrochloride], the inhibitory constant (Ki) lay within 0.01 to 10 nM.

Molecule `CC(C)N1CCC(Oc2ccc3[nH]nc(S(=O)(=O)c4cccc5ccccc45)c3c2)CC1` [Example 22, 5-(1-Isopropylpiperidin-4-yloxy)-3-(1-naphthylsulfonyl)-1H-indazole Hydrochloride] yielded an inhibition constant Ki of 0.01 to 10 nM.

`O=S(=O)(c1cccc2ccccc12)c1n[nH]c2ccc(OC3CCN(CCc4ccccc4)CC3)cc12` [Example 23, 3-(1-Naphthylsulfonyl)-5-{[1-(2-phenylethyl)piperidin-4-yl]oxy}-1H-indazole Hydrochloride] gave a Ki of 11 to 25 nM.

`CCN1CCC(Oc2ccc3[nH]nc(S(=O)(=O)c4cccc5ccccc45)c3c2)CC1` [Example 24, 5-[1-(Ethylpiperidin-4-yl)oxy]-3-(1-naphthylsulfonyl)-1H-indazole Hydrochloride] yielded a Ki of 0.01 to 10 nM.

Regarding `CCN1CCC(Oc2ccc3[nH]nc(S(=O)(=O)c4cccc5ccccc45)c3c2)C1` (centres unmarked) [Example 25, 5-[1-(Ethylpyrrolidin-3-yl)oxy]-3-(1-napthylsulfonyl)-1H-indazole Hydrochloride], the Ki was in the range of 0.01 to 10 nM.

The molecule `O=S(=O)(c1cccc2ccccc12)c1n[nH]c2ccc(OC3CCN(CCc4ccccc4)C3)cc12` (centres unmarked) [Example 26, 3-(1-Naphthylsulfonyl)-5-{[1-(2-phenylethyl)pyrrolidin-3-yl]oxy}-1H-indazole Hydrochloride] showed a Ki of 11 to 25 nM.

In turn, `O=S(=O)(c1cccc2ccccc12)c1n[nH]c2ccc(NC3CCNCC3)cc12` [Example 30, [3-(1-Naphthylsulfonyl)-1H-indazol-5-yl]-piperidin-4-ylamine Dihydrochloride] registered an inhibition constant Ki of 0.01 to 10 nM.

Take `O=S(=O)(c1cccc2ccccc12)c1n[nH]c2ccc(NCC3CCNCC3)cc12` [Example 31, 3-(1-Naphthylsulfonyl)-N-(piperidin-4-ylmethyl)-1H-indazol-5-amine Dihydrochloride]: the Ki was 0.01 to 10 nM.

In the case of `O=S(=O)(c1cccc2ccccc12)c1n[nH]c2ccc(NC3CCCNC3)cc12` (centres unmarked) [Example 32, 3-(1-Naphthylsulfonyl)-N-piperidin-3-yl-1H-indazol-5-amine Dihydrochloride], the Ki lay within 0.01 to 10 nM.

The molecule `O=S(=O)(c1cccc2ccccc12)c1n[nH]c2cc(NC3CCNCC3)ccc12` [Example 33, 3-(1-Naphthylsulfonyl)-N-piperidin-4-yl-1H-indazol-6-amine Dihydrochloride] came in with a Ki above 45 nM.

As for `O=S(=O)(c1cccc2ccccc12)c1n[nH]c2cc(NC3CCCNC3)ccc12` (centres unmarked) [Example 34, 3-(1-Naphthylsulfonyl)-N-piperidin-3-yl-1H-indazol-6-amine Dihydrochloride], the Ki was above 45 nM.

In the case of `O=S(=O)(c1cccc2ccccc12)c1n[nH]c2cc(NCC3CCNCC3)ccc12` [Example 35, 3-(1-Naphthylsulfonyl)-N-(piperidin-4-ylmethyl)-1H-indazol-6-amine Dihydrochloride], the Ki is 36 to 45 nM.

In turn, `O=S(=O)(c1cccc2ccccc12)c1n[nH]c2c(NC3CCNCC3)cccc12` [Example 36, 3-(1-Naphthylsulfonyl)-N-piperidin-4-yl-1H-indazol-7-amine Dihydrochloride] yielded a Ki of 26 to 35 nM.

`O=S(=O)(c1cccc2ccccc12)c1n[nH]c2c(NC3CCCNC3)cccc12` (centres unmarked) [Example 37, 3-(1-Naphthylsulfonyl)-N-piperidin-3-yl-1H-indazol-7-amine Dihydrochloride] gave a Ki above 45 nM.

`O=S(=O)(c1cccc2ccccc12)c1n[nH]c2c(NCC3CCNCC3)cccc12` [Example 38, 3-(1-Naphthylsulfonyl)-N-(piperidin-4-ylmethyl)-1H-indazol-7-amine Dihydrochloride] returned a Ki of 11 to 25 nM.

Turning to `O=S(=O)(c1cccc2ccccc12)c1n[nH]c2cccc(NC3CCNCC3)c12` [Example 39, 3-(1-Naphthylsulfonyl)-N-piperidin-4-yl-1H-indazol-4-amine Dihydrochloride], the Ki was 0.01 to 10 nM.

Regarding `O=S(=O)(c1cccc2ccccc12)c1n[nH]c2cccc(NC3CCCNC3)c12` (centres unmarked) [Example 40, 3-(1-Naphthylsulfonyl)-N-piperidin-3-yl-1H-indazol-4-amine Dihydrochloride], the Ki lay in the range of 0.01 to 10 nM.

For the molecule `O=S(=O)(c1cccc2ccccc12)c1n[nH]c2cccc(NCC3CCNCC3)c12` [Example 41, 3-(1-Naphthylsulfonyl)-N-(piperidin-4-ylmethyl)-1H-indazol-4-amine Dihydrochloride], the Ki lay in the range of 0.01 to 10 nM.

As to `O=S(=O)(c1cccc(Cl)c1)c1n[nH]c2ccc(NC3CCNCC3)cc12` [Example 42, 3-[(3-chlorophenyl)sulfonyl]-N-piperidin-4-yl-1H-indazol-5-amine], the Ki fell in the range of 0.01 to 10 nM.

As for `O=S(=O)(c1ccc(Cl)cc1)c1n[nH]c2ccc(NC3CCNCC3)cc12` [Example 43, 3-[(4-chlorophenyl)sulfonyl]-N-piperidin-4-yl-1H-indazol-5-amine], the Ki was in the range of 0.01 to 10 nM.

For `O=S(=O)(c1ccc2ccccc2c1)c1n[nH]c2ccc(NC3CCNCC3)cc12` [Example 44, 3-(2-naphthylsulfonyl)-N-piperidin-4-yl-1H-indazol-5-amine], the Ki was 0.01 to 10 nM.

Source of the values: patent US7790751B2, “Azinyl-3-sulfonylindazole derivatives as 5-hydroxytryptamine-6 ligands” (Wyeth LLC, priority 2005, dated 2010).
